# Patent US20140357487A1, “PLANTS HAVING INCREASED TOLERANCE TO HERBICIDES” (BASF SE, priority 2011, published 2014)
# Key:
# Assay type in all cases: biochemical
# [1] = molecular target: T1, Hordeum HPPD variant L320Q (Hordeum vulgare, UniProt O48604, A164G/L320Q/R146V/R147D/R148G); assay: HPPD activity assay, Hordeum HPPD mutant L320Q; details: normalized on Hordeum wild-type HPPD
# T1 construct: His (N); made in house; host or cells: E. coli BL21 (DE3)
# Protocol: (§1) HPPD produces homogentisic acid and CO2 from 4-hydroxyphenylpyruvate (4-HPP) and O2. The activity assay for HPPD is based on the analysis of homogentisic acid by reversed phase HPLC.
# (§2) The assay mixture can contain 150 mM potassium phosphate buffer pH 7.0, 50 mM L-ascorbic acid, 1 μM FeSO4 and 7 μg of purified enzyme in a total volume of 1 ml.
# (§3) Inhibitors are dissolved in DMSO (dimethylsulfoxide) to a concentration of 20 mM or 0.5 mM, respectively. From this stock solution serial five-fold dilutions are prepared in DMSO, which are used in the assay. The respective inhibitor solution accounts for 1% of the assay volume. […] After a preincubation of 30 min the reaction is started by adding 4-HPP to a final concentration of 0.1 mM. The reaction is allowed to proceed for 120 min at room temperature. The reaction is stopped by addition of 100 μl of 4.5 M phosphoric acid.
# (§4) Activities are normalized by setting the uninhibited enzyme activity to 100%. IC50 values are calculated using non-linear regression.
# (§5) The assay mixture can contain 150 mM potassium phosphate buffer pH 7.0, 50 mM L-ascorbic acid, 100 μM Catalase (Sigma-Aldrich), 1 μM FeSO4 and 0.2 units of purified HPPD enzyme in a total volume of 505 μl. 1 unit is defined as the amount of enzyme that is required to produce 1 nmol of HGA per minute at 20° C.
# (§6) Inhibitors are dissolved in DMSO (dimethylsulfoxide) to a concentration of 0.5 mM. From this stock solution serial five-fold dilutions are prepared in DMSO, which are used in the assay. The respective inhibitor solution accounts for 1% of the assay volume. […] Activities are normalized by setting the uninhibited enzyme activity to 100%. IC50 values are calculated using non-linear regression.
# Purified, mutant HPPD enzymes are obtained by the methods described above. Dose response and kinetic measurements are carried out using the described HPPD activity assay. Apparent michaelis constants (Km) and maximal reaction velocities (Vmax) are calculated by non-linear regression with the software GraphPad Prism 5 (GraphPad Software, La Jolla, USA) using a substrate inhibition model.
# (§7) Field performance of the optimized HPPD enzyme, which is used as a herbicide tolerance trait may depend not only on its lack of sensitivity towards HPPD inhibiting herbicides but also on its activity. To assess the potential performance of a herbicide tolerance trait a tolerance index (TI) is calculated using the following formula: […]
# Easy comparison and ranking of each trait is enabled by normalizing tolerance indexes on Arabidopsis or Hordeum wild-type HPPD.
# [2] = test system: Lolium HPPD; assay: HPPD activity assay, Lolium HPPD; details: normalized on Arabidopsis wild-type HPPD
# Protocol: as §1, §2
# (§8) Inhibitors are dissolved in DMSO (dimethylsulfoxide) to a concentration of 20 mM or 0.5 mM, respectively. From this stock solution serial five-fold dilutions are prepared in DMSO, which are used in the assay. The respective inhibitor solution accounts for 1% of the assay volume. Thus, final inhibitor concentrations range from 200 μM to 2.5 nM or from 5 μM to 63 pM, respectively. After a preincubation of 30 min the reaction is started by adding 4-HPP to a final concentration of 0.1 mM. The reaction is allowed to proceed for 120 min at room temperature. The reaction is stopped by addition of 100 μl of 4.5 M phosphoric acid.
# as §4, §5
# Inhibitors are dissolved in DMSO (dimethylsulfoxide) to a concentration of 0.5 mM. From this stock solution serial five-fold dilutions are prepared in DMSO, which are used in the assay. The respective inhibitor solution accounts for 1% of the assay volume. Thus, final inhibitor concentrations range from 5 μM to 320 pM, respectively. Activities are normalized by setting the uninhibited enzyme activity to 100%. IC50 values are calculated using non-linear regression.
# (§9) Using methods which are described in the above examples or well known in the art, purified, recombinant wildtype HPPD enzymes are characterized with respect to their kinetic properties and sensitivity towards HPPD inhibiting herbicides. Apparent michaelis constants (Km) and maximal reaction velocities (Vmax) are calculated by non-linear regression with the software GraphPad Prism 5 (GraphPad Software, La Jolla, USA) using a substrate inhibition model. […] Weighted means (by standard error) of Km and […] values are calculated from at least three independent experiments. […]
# as §7, with “of the HPPD enzyme,” for “of the optimized HPPD enzyme,”, “herbicide tolerance trait, may depend” for “herbicide tolerance trait may depend”
# [3] = test system: Picrophilus HPPD; assay: HPPD activity assay, Picrophilus HPPD; details: normalized on Arabidopsis wild-type HPPD
# Protocol: as §1, §2, §8, §4
# The assay mixture can contain 150 mM potassium phosphate buffer pH 7.0, 50 mM L-ascorbic acid, 100 μM Catalase (Sigma-Aldrich), 1 μM FeSO4 and 0.2 units of purified HPPD enzyme in a total volume of 505 μl. […]
# Inhibitors are dissolved in DMSO (dimethylsulfoxide) to a concentration of 0.5 mM. […] IC50 values are calculated using non-linear regression.
# as §9
# [4] = molecular target: T2, Hordeum HPPD (SEQ ID: 2) (Hordeum vulgare, UniProt O48604, A164G/R146V/R147D/R148G); assay: HPPD activity assay, Hordeum wild-type HPPD; details: for tolerance index TI: not normalized
# T2 construct: His (N); made in house; host or cells: E. coli BL21 (DE3)
# T2 sequence (O48604 whole entry R146V/R147D/R148G/A164G): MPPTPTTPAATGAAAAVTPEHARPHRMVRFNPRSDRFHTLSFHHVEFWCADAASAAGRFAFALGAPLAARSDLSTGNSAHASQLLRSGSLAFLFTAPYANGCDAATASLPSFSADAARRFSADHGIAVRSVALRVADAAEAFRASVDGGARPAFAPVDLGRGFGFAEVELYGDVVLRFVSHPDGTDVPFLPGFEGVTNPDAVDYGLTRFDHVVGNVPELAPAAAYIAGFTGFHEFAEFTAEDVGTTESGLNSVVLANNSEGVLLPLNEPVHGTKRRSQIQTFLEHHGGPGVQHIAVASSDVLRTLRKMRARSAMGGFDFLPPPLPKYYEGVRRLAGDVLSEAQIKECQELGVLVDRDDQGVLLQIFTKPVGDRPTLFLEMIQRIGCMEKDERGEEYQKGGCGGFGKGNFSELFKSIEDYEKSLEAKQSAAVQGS
# Protocol: as §1, §2, §3, §4, §5, §6
# (§10) Using methods which are described in the above examples or well known in the art, purified, recombinant wildtype HPPD enzymes are characterized with respect to their kinetic properties and sensitivity towards HPPD inhibiting herbicides. Apparent michaelis constants (Km) and maximal reaction velocities (Vmax) are calculated by non-linear regression with the software GraphPad Prism 5 (GraphPad Software, La Jolla, USA) using a substrate inhibition model.
# as §7, with “of the HPPD enzyme,” for “of the optimized HPPD enzyme,”, “herbicide tolerance trait, may depend” for “herbicide tolerance trait may depend”
# [5] = molecular target: T3, Arabidopsis HPPD (SEQ ID: 53) (Arabidopsis thaliana, UniProt P93836); assay: HPPD activity assay, Arabidopsis wild-type HPPD; design: key to Normalized tolerance index TI: tolerance index relative to Arabidopsis wild-type HPPD (= 1); details: for Normalized tolerance index TI: normalized on Arabidopsis wild-type HPPD; for tolerance index TI: not normalized
# T3 construct: His6 (N); made in house; host or cells: E. coli BL21 (DE3)
# T3 sequence (P93836 1-445): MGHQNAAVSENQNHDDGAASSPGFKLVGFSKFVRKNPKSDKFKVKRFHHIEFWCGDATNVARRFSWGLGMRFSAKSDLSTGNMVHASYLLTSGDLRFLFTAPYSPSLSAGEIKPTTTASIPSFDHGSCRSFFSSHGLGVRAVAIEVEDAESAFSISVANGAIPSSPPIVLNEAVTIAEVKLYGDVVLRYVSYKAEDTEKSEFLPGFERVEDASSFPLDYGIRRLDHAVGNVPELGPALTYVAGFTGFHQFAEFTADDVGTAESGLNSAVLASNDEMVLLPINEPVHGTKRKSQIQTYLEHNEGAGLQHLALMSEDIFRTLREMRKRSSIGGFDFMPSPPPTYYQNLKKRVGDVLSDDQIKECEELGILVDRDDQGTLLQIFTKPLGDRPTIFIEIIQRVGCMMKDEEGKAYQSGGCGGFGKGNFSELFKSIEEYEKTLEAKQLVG
# Protocol: as §1, §2, §3, §4, §5, §6, §10
# as §7, with “of the HPPD enzyme,” for “of the optimized HPPD enzyme,”, “herbicide tolerance trait, may depend” for “herbicide tolerance trait may depend”
# Easy comparison and ranking of each trait is enabled by normalizing tolerance indexes on Arabidopsis wild-type HPPD.
# [6] = Hordeum HPPD Wildtype, normalized on Hordeum wild-type HPPD
# [7] = Hordeum HPPD, normalized on Arabidopsis wild-type HPPD
# [8] = Arabidopsis HPPD Wildtype, Table 15
# T1 sequence (O48604 whole entry R146V/R147D/R148G/A164G/L320Q): as the sequence (O48604 whole entry R146V/R147D/R148G/A164G) above, with L320Q counted along it
Compound,Normalized tolerance index TI [1],Normalized tolerance index TI [2],Normalized tolerance index TI [3],"Normalized tolerance index TI [4, 6]","Normalized tolerance index TI [4, 7]","Normalized tolerance index TI [5, 8]","Normalized tolerance index TI ([5]; Arabidopsis HPPD, Table 12)",Ki [4] [nM],tolerance index TI ([4]; Hordeum HPPD),Ki [5] [nM],tolerance index TI ([5]; Arabidopsis HPPD)
"COCCOCc1c(Cl)ccc(C2=C(O)c3ncccc3C(C)(C)S2(=O)=O)c1Cl [Inhibitor 3, 7-[2,4-dichloro-3-(2-methoxyethoxymethyl)phenyl]-5,5-dimethyl-6,6-dioxo-thiopyrano[4,3-b]pyridin-8-ol]",2.4,0.3,17.2,1,0,1,1,,,,
"CC1=NOC(c2c(Cl)ccc(C3=C(O)c4ncccc4C(C)(C)S3(=O)=O)c2Cl)C1 (centres unmarked) [Inhibitor 1, 7-[2,4-dichloro-3-(3-methyl-4,5-dihydroisoxazol-5-yl)phenyl]-5,5-dimethyl-6,6-dioxo-thiopyrano[4,3-b]pyridin-8-ol]",2.1,4.2,283,1,0.7,1,1,6.6,2.9E−3,4.1,4E−3
"CC1(C)c2cccnc2C(O)=C(c2ccc(Cl)nc2Cl)S1(=O)=O [Inhibitor 2, 7-(2,6-dichloro-3-pyridyl)-5,5-dimethyl-6,6-dioxo-thiopyrano[4,3-b]pyridin-8-ol]",0.7,1.8,86.4,1,0.5,1,1,4.9,2.2E−3,4.2,4E−3
